This is an account of results in patent US12290513B2, “Therapeutic methods and compositions for treating movement disorders” (Vima Therapeutics, Inc., priority 2023, dated 2025).

Read-outs that look alike come from different tables or passages of the source.

The data set is described as follows: In vivo PK of (S)-BTC in rats: plasma, brain, CSF. The settings on record: male, Sprague Dawley, rat, 10 mg/kg single oral dose; for Kp: po, 10 mg/kg. As for the experimental part:
6-8-week-old male Sprague Dawley rats were fasted overnight prior to treatment. […] Treated animals were exsanguinated prior to brain collection, and brain samples were frozen at −80° C. […] Concentrations of compounds in the plasma, brain, CSF samples were analyzed using a standard LC-MS/MS method to detect parent test compound from each of the processed tissues. The following pharmacokinetic parameters were calculated and analyzed using WinNonlin (Phoenix™, version 8.3): T1/2, Cmax, Tmax, MRT, AUCinf, AUClast, F %, ratio of brain/plasma, ratio of CSF/plasma, and ratio of CSF/brain.

Usually AUC(0-t) stands for the area under the concentration-time curve up to a stated or last time point. Read a high AUC(0-t) as high exposure. The term Cmax denotes the maximum level reached in the sampled fluid or tissue. One may read the Tmax as the time at which the peak concentration occurs. By AUC(0-inf) is commonly meant the area under the concentration-time curve extrapolated to infinity. Low values mean low exposure, high ones high exposure. By half-life is commonly meant how long it takes for the measured level to halve. Low values mean rapid decline, high ones slow decline. As for `C[C@@H](C[N+](C)(C)C)OC(N)=O.[Cl-]` [(S)-BTC, (S)-bethanechol], the Kp was determined as 0.00615 (CSF and plasma, read-out: AUClast Ratio (CSF/Plasma)); 0.00553 (CSF and plasma, read-out: Cmax Ratio (CSF/Plasma)); 0.0499 (brain and plasma, read-out: AUClast Ratio (Brain/Plasma)); 0.0242 (brain and plasma, read-out: Cmax Ratio (Brain/Plasma)). For the same compound, the AUC(0-t) was 0.00631 µg·h/mL (CSF, mean) and 1.03 µg·h/mL (plasma, mean). For the same compound, the Cmax reads like this: (CSF, mean) 0.00174 µg/mL; (brain, mean) 7.6 ng/g; (plasma, mean) 0.314 µg/mL. For the same compound, the Tmax reads like this: (CSF, mean) 0.5 h; (brain, mean) 8 h; (plasma, mean) 1 h. The compound further yielded an AUC(0-inf) (plasma, mean) of 1.08 µg·h/mL. The compound further had a half-life (plasma, mean) of 1.81 h. Under “plasma, mean, read-out: MRTInf obs”, the MRT inf worked out at 2.91 h.
